Values quoted from earlier work as cited in patent US10570353B2, “Cleaning compositions” (Ascent IP Holdings, LLC, priority 2009, dated 2020).

Columns and labels:
[1] = identified from data sources
[2] = trace constituents of Trilon M Liquid
[3] = published toxicity data
[4] = supplier's nominal lipase activity

Molecule	skin sensitizer listing [1]	further results
Cn1sccc1=O [2-Methyl-4-isothiazolin-3-one]	skin sensitizers	
Cn1sc(Cl)cc1=O [5-Chloro-2-Methyl-4-isothiazolin-3-one]	skin sensitizers	
C=O [formaldehyde]		carcinogenicity listing [2]: suspected carcinogens
OO [hydrogen peroxide]	skin sensitizers	mutagenicity [3]: potential risk for mutagenicity
[Na+].[OH-] [sodium hydroxide]	skin sensitizers	
O=C([O-])CN(CC(=O)[O-])CC(=O)[O-].[Na+].[Na+].[Na+] [trisodium nitrilotriacetate]		carcinogenicity listing [2]: suspected carcinogens
cocamidopropyl betaine	skin sensitizers	
LIPOLASE® 100L: lipase derived from Thermomyces lanuginosus, from Novo-Nordisk A/S, liquid solution (protein, UniProt O59952 23-291, looked up, liquid commercial formulation, lipase derived from Thermomyces lanuginosus, from Novo-Nordisk A/S, liquid solution) Lipase: EVSQDLFNQFNLFAQYSAAAYCGKNNDAPAGTNITCTGNACPEVEKADATFLYSFEDSGVGDVTGFLALDNTNKLIVLSFRGSRSIENWIGNLNFDLKEINDICSGCRGHDGFTSSWRSVADTLRQKVEDAVREHPDYRVVFTGHSLGGALATVAGADLRGNGYDIDVFSYGAPRVGNRAFAEFLTVQTGGTLYRITHTNDIVPRLPPREFGYSHSSPEYWIKSGTLVPVTRNDIVKIEGIDATGGNNQPNIPDIPAHLWYFGLIGTCL		nominal activity [4]: 100 kLU/g
LIPOLASE® 100T: lipase derived from Thermomyces lanuginosus, from Novo-Nordisk A/S, granular solid (protein, UniProt O59952 23-291, looked up, granular commercial formulation, lipase derived from Thermomyces lanuginosus, from Novo-Nordisk A/S, granular solid) Lipase: EVSQDLFNQFNLFAQYSAAAYCGKNNDAPAGTNITCTGNACPEVEKADATFLYSFEDSGVGDVTGFLALDNTNKLIVLSFRGSRSIENWIGNLNFDLKEINDICSGCRGHDGFTSSWRSVADTLRQKVEDAVREHPDYRVVFTGHSLGGALATVAGADLRGNGYDIDVFSYGAPRVGNRAFAEFLTVQTGGTLYRITHTNDIVPRLPPREFGYSHSSPEYWIKSGTLVPVTRNDIVKIEGIDATGGNNQPNIPDIPAHLWYFGLIGTCL		nominal activity [4]: 100 kLU/g
